Measurements taken from patent publication US10913068B2, “Testing device, microfluidic chip and nucleic acid testing method” (Nanyang Technological University, priority 2015, dated 2021).
Several values for one entry are separate records, joined by “and”; a condition that tells them apart may be missing. Identical values can stand only once. Like-named read-outs stand apart in the source and are kept apart here.

Assays:
[1] = test system: β-actin mRNA (housekeeping gene); details: 3× dosage; conventional qPCR machine CFX96 Touch; control 22.93 ± 0.11
Method: (§1) A short-term (5 days) preclinical drug toxicity experiment was performed on common black laboratory mice (Strain name: C57BL/6J; Age: 5-7 weeks). All experiments were performed in accordance with the National Institutes of Health Guide for the care and use of laboratory animals (NIH Publications No. 80-23, revised 1996) and conducted after approval by the Institutional Animal Care and Use Committee of Houston Methodist Research Institute (HMRI).
(§2) A total of eight mice were divided into two equal groups, with one mouse in each group designated as the control and the remaining three subjected to drug treatment. […] The drug was administered through intraperitoneal route, with the first group having a single dose administered on the 1st day only; and the second group having 3 doses administered on the 1st, 3rd and 5th days. The animals were subsequently euthanized following standard carbon dioxide anaesthesia procedure on the 5th day after final drug administration. The mouse liver tissues were thereafter silated, and cut into equal small pieces (˜20-30 mg) and stored in RNAlater RNA Stabilization Reagent (QIAGEN®, USA) at 4° C. to prevent RNA degradation.
(§3) Once the purified mRNA had been extracted from the liver tissue samples, 30 μL of the purified mRNA extract (i.e. elution buffer with the microbeads) was collected in an EPPENDORF® tube containing the following RT-PCR composition: 75 μL 2× SYBR Green RT-PCR reaction mix (BIORAD®, Singapore), 3.0 μL iSCRIPT™ One-Step RT-PCR reverse transcriptase (BIORAD®, Singapore) and 42 μL nuclease-free water. This 150 μL final RT-PCR assay was subsequently transferred from the EPPENDORF® tube into a 250 μL HAMILTON® glass syringe connected to the RT-PCR microfluidic chip via a 1/32″ OD tubing.
(§4) The chip-compatible thermal cycler was based on the open-source OpenPCR® (Chai Biotechnologies, USA) platform, using a custom-designed aluminium metal block for contact-based thermal cycling and an ARDUINO® microcontroller for precise temperature control (see FIG. 17—schematic diagram 1700 illustrating the multiplex microfluidic real-time RT-PCR setup).
(§5) To provide a benchmark reference to the chip disclosed herein, the same RT-PCR assays (with addition of forward/reverse primers at 0.5 μM concentration) were amplified separately in EPPENDORF® tubes on a conventional CFX96 TOUCH™ Real-Time PCR Detection System (BIORAD®, USA).
(§6) The thermal cycling process was as follows: 70° C. for 2 mins to allow dehybridization of the captured mRNA from the microbeads, followed by 50° C. for 10 minutes for reverse transcription, subsequently with an initial denaturation step of 95° C. for 5 mins and finally 35 cycles of PCR, comprising two stages: denaturation at 95° C. for 10 s and annealing/extension at 55° C. for 30 s.
(§7) To enable simultaneous fluorescent detection of amplified cDNA for a fully-quantitative methodology, the inventors developed an image capturing system embodying a camera module with blue excitation LEDs to be mounted on the chip-compatible thermal cycler disclosed herein (FIG. 19—RT-PCR and fluorescent detection setup 1900). A 3MP CMOS camera with mounted 550 nm longpass optical filter (ISLAND OPTICAL SYSTEMS®, Singapore) was fitted onto a black opaque acrylic frame with a 470 nm blue LED module (IORODEO®, USA) to provide an excitation source for the SYBR Green 1 fluorescent dye present in the RT-PCR assay. The blue LED module was affixed at an angle of ˜45° to the plane of the microfluidic chip to minimize excitation light interference on the captured light pathway of the camera unit.

[2] = test system: ALT mRNA; details: for mean Ct (± S.D.), ALT: 3× dosage
Method: as §1, §2, §3, §4, §5, §6, §7

[3] = test system: AST mRNA; details: for mean Ct (± S.D.), AST: 3× dosage
Method: as §1, §2, §3, §4, §5, §6, §7

[4] = test system: β-actin mRNA (housekeeping gene); details: after 1× and 3× drug dosage (200 mg/kg body wt.); mouse liver tissue
Method: as §1, §2
(§8) A liver tissue sample, weighing approximately 20-30 mg, was loaded directly into the tissue lysis chamber. The tissue sample was secured within the chamber when the tissue microhomogenizer attachment was fitted into the opening of the lysis chamber. Subsequently, 250 μL Lysis/Binding buffer was loaded into another 250 μL glass syringe (see FIG. 16, Sample Inlet), and actuated into the tissue lysis chamber at a flow rate of 200 μL/min. For tissue lysis, the microhomogenizer attachment was activated for ˜1 min to allow the liver tissue to be shredded and homogenized. After the completion of tissue lysis, the unwanted tissue debris and supernatant were removed by the micro-pillars as the homogenized tissue lysate was actuated into the mixing chamber, where the lysate was mixed with the microbeads for ˜8 mins to allow for mRNA binding.
(§9) The purified mRNA from each mouse liver tissue sample was collected in an EPPENDORF® tube preloaded with an RT-PCR master mix. To validate the efficacy of our sample preparation microfluidic chip, purified mRNA solutions extracted using our microfluidic chip was tested for their purity using the NANODROP™ 2000 (THERMOSCIENTIFIC®, Singapore), to ensure an A260/280 ratio of ˜2.0-2.2 before proceeding to the subsequent downstream applications of RT-PCR and nucleic acid detection.
as §3
as §4, with “setup). […]” for “setup).”

[5] = test system: ALT mRNA; details: mouse liver tissue
Method: as §1, §2, §8, §9, §3
as §4, with “setup). […]” for “setup).”

[6] = test system: AST mRNA; details: mouse liver tissue
Method: as §1, §2, §8, §9, §3
as §4, with “setup). […]” for “setup).”

[7] = 3× dosage vs untreated control, Livak ΔΔCt method, normalized to β-actin, microfluidic data
[8] = 1× drug dosage (200 mg/kg body wt., intraperitoneal, day 1 only)
[9] = 3× drug dosage (200 mg/kg body wt., intraperitoneal, days 1, 3, 5), normalized to untreated control

O=P1(N(CCCl)CCCl)NCCCO1 (stereo not drawn) [cyclophosphamide]
mean Ct (± S.D.), β-actin [1]: 23.02 ± 0.08
normalized fold change (up-regulation) for ALT [2, 7]: 1.31 fold
mean Ct (± S.D.), ALT ([2]; Microfluidic Chip, control 28.8 ± 0.2): 28.5 and 28.5 ± 0.3
mean Ct (± S.D.), ALT ([2]; conventional qPCR machine CFX96 Touch, control 27.28 ± 0.10): 26.75 ± 0.07
normalized fold change (up-regulation) for AST [3, 7]: 1.62 fold
mean Ct (± S.D.), AST ([3]; Microfluidic Chip, control 20.5 ± 0.2): 19.9 and 19.9 ± 0.2
mean Ct (± S.D.), AST ([3]; conventional qPCR machine CFX96 Touch, control 20.07 ± 0.02): 19.34 ± 0.05
β-actin mRNA expression levels [4]: remained relatively unchanged
difference in final cDNA concentration (ALT) compared to untreated control [5, 8]: no significant difference
increase in final cDNA concentration for ALT [5, 9]: 33.3%
difference in final cDNA concentration (AST) compared to untreated control [6, 8]: no significant difference
increase in final cDNA concentration for AST [6, 9]: 58.7%
